Test system: TNFα secretion from LPS stimulated frozen Peripheral Blood Mononuclear Cells (PBMC)
Assay: inhibition of TNFα secretion from LPS stimulated human PBMC (hPBMC assay)
Type: cell-based
Details: LPS 1 μg/mL, overnight incubation, TNFα by HTRF
Description: Activity of the compounds was investigated using human peripheral blood mononuclear cells (hPBMC). This assay was designed to measure the inhibition of the TNFα secretion from LPS stimulated frozen Peripheral Blood Mononuclear Cells (PBMC) isolated from human blood. TNFα levels were measured using HTRF® Human TNFα kit (Cisbio #62TNFPEC) which is a rapid and quantitative sandwich immunoassay based on TR-FRET technology.
Frozen PBMC were quickly thawed, resuspended in culture medium (RPMI 10% inactivated FBS) and viable cells were seeded in 96-well plates (50,000 cells/well). […] After overnight incubation at 37° C., 10 μL of cell supernatant were mixed with 5 μL of each tagged anti-TNFα specific antibody as recommended by the supplier. After 2 hours of incubation at room temperature, the HTRF® signals were measured using a microplate reader (wavelengths: excitation=337 nm, first emission=620 nm, second emission=665 nm).

SMILES | IC50 [nM]
Cc1cc(COc2ccc(S(=O)(=O)NC3(C(=O)NO)CN(C(=O)OC(C)(C)C)C3)cc2)c2ccccc2n1 [Example 14, Tert-butyl 3-(hydroxycarbamoyl)-3-((4-((2-methylquinolin-4-yl)methoxy)phenyl)sulfonamido)azetidine-1-carboxylate] | < 50
Cc1cc(COc2ccc(S(=O)(=O)NC3(C(=O)NO)CN(C(=O)CC(C)(C)C)C3)cc2)c2ccccc2n1 [Example 15, 1-(3,3-dimethylbutanoyl)-N-hydroxy-3-((4-((2-methylquinolin-4-yl)methoxy)phenyl)sulfonamido)azetidine-3-carboxamide] | 50 to 100
Cc1cc(COc2ccc(S(=O)(=O)NC3(C(=O)NO)CN(C(=O)N4CCCCC4)C3)cc2)c2ccccc2n1 [Example 16a, N-hydroxy-3-((4-((2-methylquinolin-4-yl)methoxy)phenyl)sulfonamido)-1-(piperidine-1-carbonyl)azetidine-3-carboxamide] | 50 to 100
Cc1cc(COc2ccc(S(=O)(=O)NC3(C(=O)NO)CN(C(=O)N4CCOCC4)C3)cc2)c2ccccc2n1 [Example 16b, N-hydroxy-3-((4-((2-methylquinolin-4-yl)methoxy)phenyl)sulfonamido)-1-(morpholine-4-carbonyl)azetidine-3-carboxamide] | < 50
Cc1cc(COc2ccc(S(=O)(=O)NC3(C(=O)NO)CN(C(=O)N4CCN(C)CC4)C3)cc2)c2ccccc2n1 [Example 16c, N-hydroxy-1-(4-methylpiperazine-1-carbonyl)-3-((4-((2-methylquinolin-4-yl)methoxy)phenyl)sulfonamido)azetidine-3-carboxamide] | < 50
C=CCOC(=O)N1CC(NS(=O)(=O)c2ccc(OCc3cc(C)nc4ccccc34)cc2)(C(=O)NO)C1 [Example 17, Allyl 3-(hydroxycarbamoyl)-3-((4-((2-methylquinolin-4-yl)methoxy)phenyl)sulfonamido)azetidine-1-carboxylate] | < 50
Cc1cc(COc2ccc(S(=O)(=O)N(C)C3(C(=O)NO)CN(C(=O)C(C)C)C3)cc2)c2ccccc2n1 [Example 19a, N-hydroxy-1-isobutyryl-3-((N-methyl-4-((2-methylquinolin-4-yl)methoxy)phenyl)sulfonamido)azetidine-3-carboxamide] | < 50
CCC(CC)C(=O)N1CC(C(=O)NO)(N(C)S(=O)(=O)c2ccc(OCc3cc(C)nc4ccccc34)cc2)C1 [Example 19b, 1-(2-ethylbutanoyl)-N-hydroxy-3-((N-methyl-4-((2-methylquinolin-4-yl)methoxy)phenyl)sulfonamido)azetidine-3-carboxamide] | 50 to 100
Cc1cc(COc2ccc(S(=O)(=O)N(C)C3(C(=O)NO)CN(C(=O)C4CCOCC4)C3)cc2)c2ccccc2n1 [Example 19c, N-hydroxy-3-((N-methyl-4-((2-methylquinolin-4-yl)methoxy)phenyl)sulfonamido)-1-(tetrahydro-2H-pyran-4-carbonyl)azetidine-3-carboxamide] | < 50
Cc1cc(COc2ccc(S(=O)(=O)N(C)C3(C(=O)NO)CN(C(=O)CC(C)C)C3)cc2)c2ccccc2n1 [Example 19d, N-hydroxy-3-((N-methyl-4-((2-methylquinolin-4-yl)methoxy)phenyl)sulfonamido)-1-(3-methylbutanoyl)azetidine-3-carboxamide] | < 50
Cc1cc(COc2ccc(S(=O)(=O)N(C)C3(C(=O)NO)CN(C(=O)OC(C)(C)C)C3)cc2)c2ccccc2n1 [Example 20, Tert-butyl 3-(hydroxycarbamoyl)-3-((N-methyl-4-((2-methylquinolin-4-yl)methoxy)phenyl)sulfonamido)azetidine-1-carboxylate] | < 50
CCN(C1(C(=O)NO)CN(C(=O)C(C)C)C1)S(=O)(=O)c1ccc(OCc2cc(C)nc3ccccc23)cc1 [Example 21a, 3-((N-ethyl-4-((2-methylquinolin-4-yl)methoxy)phenyl)sulfonamido)-N-hydroxy-1-isobutyrylazetidine-3-carboxamide] | < 50
CCN(C1(C(=O)NO)CN(C(=O)C2CCOCC2)C1)S(=O)(=O)c1ccc(OCc2cc(C)nc3ccccc23)cc1 [Example 21b, 3-((N-ethyl-4-((2-methylquinolin-4-yl)methoxy)phenyl)sulfonamido)-N-hydroxy-1-(tetrahydro-2H-pyran-4-carbonyl)azetidine-3-carboxamide] | 50 to 100
COCCN(C1(C(=O)NO)CN(C(=O)C(C)C)C1)S(=O)(=O)c1ccc(OCc2cc(C)nc3ccccc23)cc1 [Example 22, N-hydroxy-1-isobutyryl-3-((N-(2-methoxyethyl)-4-((2-methylquinolin-4-yl)methoxy)phenyl)sulfonamido)azetidine-3-carboxamide] | < 50
Cc1cc(COc2ccc(S(=O)(=O)N(C(C)C)C3(C(=O)NO)CN(C(=O)C(C)C)C3)cc2)c2ccccc2n1 [Example 23, N-hydroxy-1-isobutyryl-3-((N-isopropyl-4-((2-methylquinolin-4-yl)methoxy)phenyl)sulfonamido)azetidine-3-carboxamide] | 500 to 1000
CC(=O)N1CC(CC(=O)NO)(NS(=O)(=O)c2ccc(OCc3cc(C)nc4c(C)cccc34)cc2)C1 [Example 24, 2-(1-acetyl-3-((4-((2,8-dimethylquinolin-4-yl)methoxy)phenyl)sulfonamido)azetidin-3-yl)-N-hydroxyacetamide] | < 50
Cc1cc(COc2ccc(S(=O)(=O)NC3(CC(=O)NO)CN(C(=O)N4CCOCC4)C3)cc2)c2ccccc2n1 [Example 25, N-hydroxy-2-(3-((4-((2-methylquinolin-4-yl)methoxy)phenyl)sulfonamido)-1-(morpholine-4-carbonyl)azetidin-3-yl)acetamide] | < 50
CO[C@H]1C[C@H](C(=O)N2CC(NS(=O)(=O)c3ccc(OCc4cc(C)nc5ccccc45)cc3)(C(=O)NO)C2)C1 [Example 26a, N-hydroxy-1-((1r,3r)-3-methoxycyclobutane-1-carbonyl)-3-((4-((2-methylquinolin-4-yl)methoxy)phenyl)sulfonamido)azetidine-3-carboxamide] | < 50
CO[C@H]1C[C@@H](C(=O)N2CC(NS(=O)(=O)c3ccc(OCc4cc(C)nc5ccccc45)cc3)(C(=O)NO)C2)C1 [Example 26b, N-hydroxy-1-((1s,3s)-3-methoxycyclobutane-1-carbonyl)-3-((4-((2-methylquinolin-4-yl)methoxy)phenyl)sulfonamido)azetidine-3-carboxamide] | < 50
Cc1cc(COc2ccc(S(=O)(=O)NC3(C(=O)NO)CN(C(=O)CC4CC4)C3)cc2)c2ccccc2n1 [Example 26c, 1-(2-cyclopropylacetyl)-N-hydroxy-3-((4-((2-methylquinolin-4-yl)methoxy)phenyl)sulfonamido)azetidine-3-carboxamide] | < 50
CC[C@H](C)C(=O)N1CC(NS(=O)(=O)c2ccc(OCc3cc(C)nc4ccccc34)cc2)(C(=O)NO)C1 [Example 26d, (S)-N-hydroxy-1-(2-methylbutanoyl)-3-((4-((2-methylquinolin-4-yl)methoxy)phenyl)sulfonamido)azetidine-3-carboxamide] | < 50
Cc1cc(COc2ccc(S(=O)(=O)NC3(C(=O)NO)CN(C(=O)C4CC(F)(F)C4)C3)cc2)c2ccccc2n1 [Example 26e, 1-(3,3-difluorocyclobutane-1-carbonyl)-N-hydroxy-3-((4-((2-methylquinolin-4-yl)methoxy)phenyl)sulfonamido)azetidine-3-carboxamide] | < 50
Cc1cc(COc2ccc(S(=O)(=O)NC3(C(=O)NO)CN(C(=O)C(C)C)C3)cc2)c2cccc(C)c2n1 [Example 27, 3-((4-((2,8-dimethylquinolin-4-yl)methoxy)phenyl)sulfonamido)-N-hydroxy-1-isobutyrylazetidine-3-carboxamide] | 100 to 500
Cc1cc(COc2ccc(S(=O)(=O)NC3(CC(=O)NO)CN(C(=O)N4CCN(C(C)C)CC4)C3)cc2)c2ccccc2n1 [Example 28a, N-hydroxy-2-(1-(4-isopropylpiperazine-1-carbonyl)-3-((4-((2-methylquinolin-4-yl)methoxy)phenyl)sulfonamido)azetidin-3-yl)acetamide] | < 50
Cc1cc(COc2ccc(S(=O)(=O)NC3(C(=O)NO)CN(C(=O)CC(C)C)C3)cc2)c2cccc(F)c2n1 [Example 29, 3-((4-((8-fluoro-2-methylquinolin-4-yl)methoxy)phenyl)sulfonamido)-N-hydroxy-1-(3-methylbutanoyl)azetidine-3-carboxamide] | 100 to 500
Cc1cc(COc2ccc(S(=O)(=O)N(C)C3(C(=O)NO)CN(C(=O)C(C)C)C3)cc2)c2cccc(F)c2n1 [Example 30, 3-((4-((8-fluoro-2-methylquinolin-4-yl)methoxy)-N-methylphenyl)sulfonamido)-N-hydroxy-1-isobutyrylazetidine-3-carboxamide] | < 50
Cc1cc(COc2ccc(S(=O)(=O)NC3(CC(=O)NO)CN(C(=O)N4CCN(C)CC4)C3)cc2)c2cccc(C)c2n1 [Example 31, 2-(3-((4-((2,8-dimethylquinolin-4-yl)methoxy)phenyl)sulfonamido)-1-(4-methylpiperazine-1-carbonyl)azetidin-3-yl)-N-hydroxyacetamide] | 50 to 100

From US10556883B2, “Benzenesulfonamide compounds, method for synthesizing same, and use thereof in medicine and cosmetics” (GALDERMA RESEARCH & DEVELOPMENT, priority 2016, dated 2020)
